Laboratory results published in patent publication US9718790B2, “Triazine derivative and pharmaceutical composition having an analgesic activity comprising the same” (SHIONOGI & CO., LTD., priority 2010, dated 2017).

Columns and labels:
[1] = Bioavailability (BA) test; type: in vivo; details: plasma; mice or SD rats, oral vs intravenous AUC
Description: (1) Animals: Mice or SD rats were used
(2) Breeding conditions: Mice or SD rats were allowed to freely take solid food and sterilized tap water.
(3) Dose and grouping: orally or intravenously administered at a predetermined dose; grouping was as follows (Dose depends one the compound) • Oral administration: 0.3 to 30 mg/kg (n=2 to 3) • Intravenous administration: 0.5 to 10 mg/kg (n=2 to 3)
(4) Preparation of dosing solution: for oral administration, in a solution or a suspension state: for intravenous administration, in a solubilized state
(5) Administration method: in oral administration, forcedly administer into ventriculus with oral probe; in intravenous administration, administer from caudal vein with a needle-equipped syringe
(6) Evaluation items: blood was collected over time, and the plasma concentration of drug was measured by LC/MS/MS
(7) Statistical analysis: regarding the transition of the plasma concentration or the present compound, the area under the plasma concentration-time curve (AUC) was calculated by non-linear least squares program WinNonlin (Registered trade name), and the bioavailability (BA) was calculated the AUCs of the oral administration group and intravenous administration group

CYP2D6 = CYP2D6 (Homo sapiens (Human), UniProt P10635); assay: CYP inhibition test, pooled human hepatic microsome, dextromethorphan O-demethylation; type: in vitro ADME; details: substrate dextromethorphan
Sequence of CYP2D6 (P10635 whole entry): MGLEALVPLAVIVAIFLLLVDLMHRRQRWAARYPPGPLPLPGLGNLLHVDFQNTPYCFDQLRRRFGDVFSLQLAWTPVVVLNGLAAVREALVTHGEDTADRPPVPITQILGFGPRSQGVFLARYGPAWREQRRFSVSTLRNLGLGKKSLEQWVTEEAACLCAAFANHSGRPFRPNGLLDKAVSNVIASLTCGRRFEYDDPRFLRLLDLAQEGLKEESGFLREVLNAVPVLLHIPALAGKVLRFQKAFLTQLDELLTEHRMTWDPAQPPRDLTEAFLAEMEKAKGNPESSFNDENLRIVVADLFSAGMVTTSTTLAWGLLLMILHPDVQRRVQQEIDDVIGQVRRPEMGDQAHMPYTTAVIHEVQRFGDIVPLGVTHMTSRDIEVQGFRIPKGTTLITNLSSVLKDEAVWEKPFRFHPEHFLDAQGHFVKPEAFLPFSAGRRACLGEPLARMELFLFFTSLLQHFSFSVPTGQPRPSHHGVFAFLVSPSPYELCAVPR
Description: (§1) Using commercially available pooled human hepatic microsome, and employlng, as markers, 7-ethoxyresorufin O-deethylation (CYP1A2), tolbutamide methyl-hydroxylation (CYP2C9), mephenyloin 4′-hydroxylation (CYP2C19), dextromethorphan O-demethylation (CYP2D6), and terfenedine hydroxylation as typical substrate metabolism reactions of human main five CYP enzyme forms (CYP1A2, 2C9, 2C19, 2D6, 3A4), an inhibitory degree of each metabolite production amount by a test compound was assessed.
(§2) The reaction conditions were as follows: substrate, 0.5 μmol/L ethoxyresorufin (CYP1A2), 100 μmol/L tolbutamide (CYP2C9), 50 μmol/L S-mephenitoin (CYP2C19), 5 μmol/L dextromethorphan (CYP2D6), 1 μmol/L terfenedine (CYP3A4) reaction time, 15 minutes; reaction temperature, 37° C; enzyme, pooled human hepatic microsome 0.2 mg protein/mL; test drug concentration, 1.0, 5.0, 10, 20 μmol/L (four points).
(§3) Each five kinds of substrates, human hepatic microsome, or a test drug in 50 mmol/L Hepes buffer as a reaction solution was added to a 96-well plate at the composition as described above, NADPH, as a cofactor was added to initiate metabolism reactions as markers and, after the incubation at 37° C. for 15 minutes, a methanol/acetonitrile=1/1 (v/v) solution was added to stop the reaction. After the centrifugation at 3000 rpm for 15 minutes, resorufin (CYP1A2 metabolite) in the supernatant was quantified by a fluorescent multilabel counter and tributamide hydroxide (CYP2CP metabolite), mephenyloin 4′ hydroxide (CYP2C19 metabolite), […] (CYP2D6 metabolite), and terfenadine alcohol (CYP3A4 metabolite) were quantified by LC/MS/MS.

rat P2X3 receptor = rat P2X3 receptor (Rattus norvegicus (Rat), UniProt P49654); assay: Evaluation of rat P2X3 receptor inhibitory activity in the presence of rat serum albumin (1% RSA); type: cell-based
Sequence of rat P2X3 receptor (P49654 whole entry): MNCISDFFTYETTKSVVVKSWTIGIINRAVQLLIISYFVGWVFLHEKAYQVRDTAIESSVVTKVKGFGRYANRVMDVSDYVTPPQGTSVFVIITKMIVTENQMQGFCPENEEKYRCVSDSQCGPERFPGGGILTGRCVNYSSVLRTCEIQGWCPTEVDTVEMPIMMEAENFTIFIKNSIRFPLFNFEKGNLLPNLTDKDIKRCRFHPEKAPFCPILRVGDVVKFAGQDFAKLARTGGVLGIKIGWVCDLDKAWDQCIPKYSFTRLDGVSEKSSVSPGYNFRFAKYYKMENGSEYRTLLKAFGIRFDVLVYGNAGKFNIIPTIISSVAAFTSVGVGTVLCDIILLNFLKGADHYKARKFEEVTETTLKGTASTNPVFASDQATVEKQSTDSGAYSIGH
Description: Rat P2X3 receptor gene (GenBank accession number NM_031075) was expressed in C6BU-1 cell. The cells stably expressing rat P2X3 were seeded in a 96-well microtiter plate at a :concentration of 8000 cells/well and cultured in the medium (8.3% fetal bovine serum, 8.3% horse serum, 1% antibiotic and antifungal in DMEM) for one day at 37° C. under 5% carbon dioxide atmosphere. In transiently expressing system, the C6BU-1 cells were seeded in a 96-well microtiter plate at a concentration of 2500 cells/well and cultured in the medium for one day at 37° C. under 5% carbon dioxide atmosphere. The plasmid was transfected into the cells using transfection reagent FuGENE6 (Roche). The transfected cells were cultured in the medium for one day at 37° C. under 5% carbon dioxide atmosphere. […] Measurement of fluorescence intensity by FDSS 3000 was started, and 40 μL of DMSO solutions containing 1% RSA (final concentrations) and different concentrations of the test compound as prepared by dilution with dilution buffer (20 mM HEPES, 137 mM NaCl, 2.7 mM KCl, 0.9 mM MgCl2, 5.0 mM CaCl2, 5.0 mM D-glucose, 2.5 mM probenecid, 0.1% Pluronic F-127, pH 7.5) were dispensed to each well through the built-in automatic dispenser. Five minutes after, 50 nM ATP solution (50 μL) prepared by dilution with the dilution buffer was dispensed through the built-in automatic dispenser, and the measurement of fluorescence intensity was continued for 3 min. For each well, the specific maximum fluorescence intensity was calculated as the ratio of the maximum fluorescence intensity after addition of the ATP solution to the fluorescence intensity at the starting of the measurement. […] FDSS software (Hamamatsu Photonics K.K.) was used for calculation of the specific maximum fluorescence intensity. IC50 was calculated using Microsoft Excel (Microsoft Corporation) and XLfit (idbs Ltd.).

CYP2C9 = CYP2C9 (Homo sapiens (Human), UniProt P11712); assay: CYP inhibition test, pooled human hepatic microsome, tolbutamide methyl-hydroxylation; type: in vitro ADME; details: substrate tolbutamide
Sequence of CYP2C9 (P11712 whole entry): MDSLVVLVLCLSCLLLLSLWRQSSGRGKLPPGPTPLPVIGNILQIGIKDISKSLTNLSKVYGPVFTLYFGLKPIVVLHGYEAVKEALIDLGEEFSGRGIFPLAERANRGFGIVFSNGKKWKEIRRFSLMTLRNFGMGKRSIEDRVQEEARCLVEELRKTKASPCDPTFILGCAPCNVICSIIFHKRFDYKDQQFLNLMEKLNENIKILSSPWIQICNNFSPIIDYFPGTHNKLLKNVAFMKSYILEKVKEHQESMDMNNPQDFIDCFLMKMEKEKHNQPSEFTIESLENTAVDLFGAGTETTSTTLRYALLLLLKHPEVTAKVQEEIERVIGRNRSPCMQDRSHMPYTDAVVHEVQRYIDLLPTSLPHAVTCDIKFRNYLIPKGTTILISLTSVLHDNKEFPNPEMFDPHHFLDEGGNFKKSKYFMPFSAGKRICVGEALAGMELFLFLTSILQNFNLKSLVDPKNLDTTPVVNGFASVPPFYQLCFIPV
Description: as §1, §2, §3

serum = assay: Protein binding test (equilibrium dialysis, serum); type: in vitro ADME; details: 37° C., 24 hours, 2 μg/mL
Description: The unbound fraction the present compound in serum was measured using serum of various species.
The reactive conditions are as follows: Evaluation method, Equilibrium dialysis; Reaction time, 24 hours; Reaction temperature, 37° C.; Concentration of the present compound, 2 μg/mL.
The test solution was added to each serum and the mixture was agitated to prepare the serum samples at the concentration mentioned above. Each serum sample was added into one side or the cell and phosphate buffered saline (PBS) was added into the other side to perform equilibrium dialysis at 37° C. for 24 hours. Then, the concentration of the compounds in the samples that were obtained from both sides was measured by LC/MS/MS.
(Result) The ratio of PBS concentration to serum concentration is expressed as unbound fraction.

SMILES	bioavailability [1] [%]	IC50 (CYP2D6) [µM]	rat P2X3 (+RSA) IC50 (rat P2X3 receptor) [µM]	IC50 (CYP2C9) [µM]	unbound fraction (ratio of PBS concentration to serum concentration) (serum) [%]
CCn1c(=O)[nH]/c(=N\c2ccc(Oc3ccnc(C(=O)O)c3)cc2)n(Cc2ccc(Cl)cc2)c1=O [Compound I-1788]	31	> 20	0.059	> 20	–
C[C@@H](Cn1c(=O)[nH]/c(=N\c2ccc(OCC3CC3)cc2)n(Cc2ccc(Cl)cc2)c1=O)C(=O)O [Compound I-0837]	46	> 20	0.044	> 20	2.1
O=c1[nH]/c(=N\c2ccc(Oc3ccon3)cc2)n(Cc2ccc(Cl)cc2)c(=O)n1CC(CO)CO [Compound I-2291]	83	> 20	0.02	> 20	4.5
